# Legend:
# TNF-α = TNF-α mRNA expression in anti-CD28-stimulated splenocytes (RT-PCR, relative to GAPDH); assay type: cell-based; settings: splenocytes of diabetic NOD mice, 2 ng/ml anti-mouse CD28, 100 mM peptide, 3 hr
# Description: (§1) The end of the tail of the experimental animals prepared as in Example 2-1 was wounded once a week, and a drop of blood therefrom was measured for blood glucose levels using a glucometer (Roche, Accu-CHEK Performa). The blood glucose levels were confirmed to be “high” (600 mg/dL or more), the mice were subjected to cervical dislocation, and the spleen was extracted therefrom. A cell strainer (BD, 352350) was placed on a 50 ml tube, and the extracted spleen tissue was passed through the cell strainer using the plunger end of a syringe, after which the tube containing the strained cells was added with HBSS (Hanks' Balanced Salt solution) so that the cells were washed with water, followed by centrifugation (1,000 rpm, 5 min) to remove the supernatant. The cells were suspended with 1 ml of HBSS, added with 10 ml of 1×RBC lysis buffer (Ebioscience, 00-4333-57), mixed with gentle stirring, allowed to stand in ice for 5 min, and then centrifuged (1,000 rpm, 5 min) to remove the supernatant. The resulting cells were added with 10 ml of a RBC lysis buffer once more, allowed to stand in ice for 5 min, further centrifuged (1,000 rpm, 5 min) to remove the supernatant, and then washed two times with 10 ml of HBSS. After final centrifugation (1,000 rpm, 5 min), the cells were suspended with 1 ml of HBSS, 50 μl of the cells were diluted with a trypan blue solution at 1:1, and the number of cells was counted using a hemocytometer. […]
# (§2) Thereafter, the cells were centrifuged (1,000 rpm, 5 min) to remove the supernatant, lysed through pipetting with 5 ml of TRIzol (Invitrogen, 15596-018), and allowed to stand at room temperature for 5 min. […] RNA was eluted by adding 30 μl of DEPC-treated water and quantified.
# (§3) cDNA was synthesized through the experimental procedure for a cDNA synthesis kit (ELPISbio, EBT-1512) using […] of the quantified RNA. Then, in accordance with the procedure for a PCR (Polymerase Chain Reaction) kit (Solgent, SEF01-M50H), cDNA of each cytokine (IFN-γ, TNF-α, TGF-β1) and a housekeeping gene GAPDH for quantitative determination of changes in cytokine expression were amplified. […]
# TGF-β1 = TGF-β1 mRNA expression in anti-CD28-stimulated splenocytes (RT-PCR, relative to GAPDH); assay type: cell-based; settings: splenocytes of diabetic NOD mice, 2 ng/ml anti-mouse CD28, 100 mM peptide, 72 hr
# Description: as §1, §2, §3
# IFN-γ = IFN-γ mRNA expression in anti-CD28-stimulated splenocytes (RT-PCR, relative to GAPDH); assay type: cell-based; settings: splenocytes of diabetic NOD mice, 2 ng/ml anti-mouse CD28, 100 mM peptide, 3 hr
# Description: as §1, §2, §3
# [1] = system: NOD/ShiLtJ mice with type 1 diabetes (insulitis); assay: Effect of inhibiting or reducing development of insulitis (insulitis score of pancreatic islets, H&E); assay type: in vivo, mouse; settings: NOD mice with type 1 diabetes, 5 mg/kg SC every morning and evening for 14 days, pancreas on 14th day
# Description: (§4) The experimental animals were 8-week-old female NOD/ShiLtJ (Jackson Lab). NOD (Non-obese diabetic) mice are animal models of insulitis and type 1 diabetes. In these animals, it is known that type 1 diabetes occurs at 18 weeks of age on average and 90% of incidence thereof occurs by 30 weeks of age. All animals were housed under SPF barrier conditions. This study was approved by the Institutional Animal Care and Use Committee of Osong Medical Innovation Foundation Laboratory Animal Center (Kbio-IACUC-2018-066). The acclimation period was 1 week, and the light/dark cycle was 12 hr ([…]). The temperature was 20±2° C., and the relative humidity was 60 to 80%. Since the incidence of diabetes may be inhibited by intestinal microorganisms, water, the pH of which was adjusted to 2.8-3.2 using HCl, was supplied to the experimental animals.
# (§5) The end of the tail of the experimental animals prepared above was wounded once a week and a drop of blood therefrom was measured for blood glucose levels using a glucometer (Roche, Accu-CHEK Performa). When the blood glucose levels were measured to be 250 mg/dL or more and the blood glucose levels remeasured on the third day thereafter was also 250 mg/dL or more, type 1 diabetes was considered to have occurred, and the experiment was conducted.
# Two experimental animals with type 1 diabetes were selected as the treatment group of Example 1, and were subcutaneously (SC) administered with 100 μl of the peptide of Example 1 (5 mg/kg). The administration was performed every morning and evening for 14 days, and the blood glucose levels were measured using a glucometer. […] On the 14th day, one experimental animal, the blood glucose levels of which were measured to be less than 250 mg/dL, was selected as a normal group, and was used to compare the insulitis scores of experimental animals with type 1 diabetes and experimental animals without type 1 diabetes.
# After measurement of the blood glucose levels on the 14th day, the pancreas was removed from the experimental animals and fixed in 10% […] buffered formalin (10% NBF, Sigma, HT5011) to manufacture a paraffin block. […] For the treatment group of Example 1, the number of islets in two animals was measured, individual islets were classified depending on the stage of insulitis to thus determine the insulitis score, and the number of islets corresponding to each insulitis stage among the total number of islets was represented as a percentage. For the negative control group and the normal group, the insulitis scores were determined as in the treatment group of Example 1, after which the number of islets corresponding to each insulitis stage among the total number of islets was represented as a percentage. […]
# [2] = system: NOD/ShiLtJ mice with type 1 diabetes; assay: Effect of lowering blood glucose levels in animals with type 1 diabetes; assay type: in vivo, mouse; settings: NOD mice with type 1 diabetes, 5 mg/kg SC every morning and evening, up to 14 days, two animals; negative control (PBS) continuously increased
# Description: as §4
# as §5, with “conducted. […]” for “conducted.”
Substance,TNF-α mRNA expression level compared to the negative control group (anti-CD28) (TNF-α),TGF-β1 mRNA expression level compared to the negative control group (anti-CD28) (TGF-β1),IFN-γ mRNA expression level compared to the negative control group (anti-CD28) (IFN-γ),percentage of islets in insulitis stage 3 compared to the negative control group [1],percentage of islets in stage 0 (no insulitis) compared to the negative control group [1],percentage of islets in stage 0 compared to the normal group [1],percentages of islets in insulitis stages 0-2 compared to the negative control group [1],blood glucose levels [2]
GAGAGY [Comparative Example 1],did not greatly change,did not greatly change,did not greatly change,–,–,–,–,–
YGAGAGAGY [Example 1],reduced,increased,reduced,decreased,approximately doubled,higher,increased,decreased significantly and then remained in the normal range
YGAGAG [Comparative Example 2],increase,did not greatly change,did not greatly change,–,–,–,–,–

# From US12269901B2, “Peptide and use thereof” (ENSOL BIOSCIENCES, INC., priority 2019, dated 2025)
